Measured values taken from patent publication US5089623A, “Certain imidate insecticides” (Imperial Chemical Industries Plc, priority 1990, dated 1992).

Assays:
Assay type in all cases: in vivo
[1] = test system: Housefly [Musca domestica]; assay: Housefly insecticidal test (HF); settings: per 25 female houseflies, 48 hours
[2] = test system: Tobacco Budworm [Heliothis virescens (Fabricius)]; assay: Tobacco budworm contact test (TBW-C); settings: second-instar larvae, 5 days, percent in solution
Experimental: (§1) The compounds in Tables 1 and 2 above were tested for insecticidal activity using the following testing procedures. LC50 values, based on the results of these tests and calculated according to dosage-mortality curves, are expressed in Table 3.
Tobacco Budworm [Heliothis virescens (Fabricius)]
(a) Contact: Test compounds were diluted in a 50-50 acetonewater solution. Cotton (Gossypium sp.) cotyledons were immersed in the test solutions for 2-3 seconds and placed on a wire screen to dry. The dried leaves were placed in petri dishes containing a moistened piece of filter paper and infested with 5 second-instar tobacco budworm larvae. The dishes were placed in a high humidity chamber for 5 days, and percent mortality of the larvae recorded. Test concentrations ranged from 0.1% downward. The LC-50 values are expressed below in Table 3 under the heading "TBW-C" in terms of percent of the test compound in the solution.

[3] = test system: Tobacco Budworm [Heliothis virescens (Fabricius)] eggs; assay: Tobacco budworm egg test (TBW-E); settings: percent in solution
[4] = test system: Beet Armyworm (Spodoptera exigua); assay: Beet armyworm test (BAW); settings: second-instar larvae, five days, percent in solution
Experimental: as §1
Beet Armyworm (Spodoptera exigua)
Test compounds were diluted in a 50-50 acetone-water solution. Young leaves of sugar beets (Beta vulgaris) were immersed in the test solutions for 2-3 seconds and placed on a wire screen to dry. The dried leaves were placed in petri dishes containing a moistened filter paper and infested with five second-instar beet armyworm larvae. The dishes were placed in a high humidity chamber. Mortality of the larvae was recorded five days later. Test concentrations ranged from 0.1% downward. The LC-50 values are expressed below in Table 3 under the heading "BAW" in terms of percent of the test compound in solution.

[5] = test system: Cabbage Looper [Trichoplusia ni (Hubner)]; assay: Cabbage looper test (CL); settings: second-instar larvae, 3-5 days, percent in solution
[6] = test system: Aster Leafhopper [Macrosteles fascifrens (Stal)]; assay: Aster leafhopper test (LH); settings: adults/nymphs, 48 hours, percent in solution
[7] = test system: Maize weevil [Sitophilus Zeamais (Motschulsky)]; assay: Maize weevil test (MW); settings: adult weevils, treated corn seeds, 48 hours, percent in solution
Method in brief: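 Adult weevils (10) were placed with four corn seeds that had been dipped 2-3 s in compound dissolved in 50:50 acetone:water, then dried, and held at about 25° C. Mortality was scored at 48 h. LC50 was taken from dosage-mortality curves and expressed as percent compound in solution, from a 0.01% top concentration.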

SMILES	LC50 HF [1] [µg]	LC50 TBW C [2] [%]	LC50 TBW E [3] [%]	LC50 BAW [4] [%]	LC50 CL [5] [%]	LC50 LH [6] [%]	LC50 MW [7] [%]
O=[N+]([O-])c1ccc(N=C(OCc2cccc(Oc3ccccc3)c2)C(Cl)Cl)cc1 [Compound 173]	18	> 0.1	> 0.1	> 0.1	0.02		
CC(C)C(=Nc1ccc(Cl)c(Cl)c1)OCc1cccc(Oc2ccccc2)c1 [Compound 14]	40			0.005	0.004	0.001	0.01
CC(C)C(=Nc1ccc(F)cc1)OCc1cccc(Oc2ccccc2)c1 [Compound 46]	7		0.016	0.006	0.003	0.002	
CC(C)C(=Nc1ccc(F)c(Cl)c1)OCc1cccc(Oc2ccc(F)c(F)c2)n1 [Compound 531]	5	0.00037	> 0.1		> 0.1	> 0.05	> 0.01
CC(C)C(=Nc1ccc(F)c(Cl)c1)OCc1cccc(Oc2ccc(Cl)cc2)n1 [Compound 463]	8		0.0075	0.0024	0.00009	0.0003	0.01
CC(C)C(=Nc1ccc(F)c(C(F)(F)F)c1)OCc1cccc(Oc2ccc(F)cc2)c1 [Compound 120]	14	0.0025	0.04		0.00015	0.0003	> 0.01
CC(C)C(=Nc1cccc(Cl)c1)OCc1cccc(Oc2ccccc2)c1 [Compound 7]	8		0.009	0.006	0.006	0.0002	
CCC(C)C(=Nc1ccc(F)c(Cl)c1)OCc1cccc(Oc2ccccc2)c1 (stereo not shown) [Compound 122]	37		0.05	0.01	0.0007	> 0.05	
CCOc1ccc(N=C(OCc2cccc(Oc3ccccc3)c2)C(Cl)Cl)cc1 [Compound 138]	19	0.015	0.08		0.005	> 0.05	> 0.01
CC(C)C(=Nc1ccc(F)c(C(F)(F)F)c1)OCc1ccc(F)c(Oc2ccc(Cl)cc2)c1 [Compound 297]	23	0.00075	0.025		0.00027	0.0001	0.0071
CC(C)C(=Nc1ccc(C(F)(F)F)cc1)OCc1cccc(Oc2ccc(Cl)cc2)n1 [Compound 530]	9.8	0.00005	0.005		0.00027	0.05	> 0.01
Clc1ccccc1N=C(OCc1cccc(Oc2ccccc2)c1)C(Cl)Cl [Compound 34]	> 100	0.01	> 0.1	0.015	0.015		
CC(C)C(=Nc1ccc(F)c(Cl)c1F)OCc1cccc(Oc2ccc(F)cc2)n1 [Compound 521]	7.5	0.0005	> 0.1		0.00005	0.05	0.01
O=[N+]([O-])c1cccc(N=C(OCc2cccc(Oc3ccccc3)c2)C(Cl)Cl)c1 [Compound 174]	17		> 0.1	0.1	0.03		
CC(C)C(=Nc1ccc(Cl)cc1)OCc1ccc(F)c(Oc2ccccc2)c1 [Compound 23]	5		0.017	0.001	0.0005		
CC(C)C(=Nc1ccc(F)c(Cl)c1)OCc1cccc(Oc2ccccc2)n1 [Compound 462]	7	0.0025	0.04		0.001	0.001	> 0.05
CC(C)C(=Nc1ccc(F)c(Cl)c1)OCc1cccc(Oc2ccc(Br)cc2)c1 [Compound 238]	25	0.0004	0.05		0.0002	> 0.05	> 0.01
CC(C)C(=Nc1ccc(I)cc1)OCc1cccc(Oc2ccc(F)cc2)c1 [Compound 234]	38	0.0013	0.09		0.00045	0.003	> 0.01
CC(C)C(=Nc1cccc(Cl)c1)OCc1cccc(Oc2ccc(F)cc2)c1 [Compound 194]	10	0.0017	0.04		0.0005	0.0005	> 0.01
CC(C)C(=Nc1cccc(C(F)(F)F)c1)OCc1cccc(Oc2ccccc2)c1 [Compound 67]	15		0.01	0.006	0.001	0.00027	
CC(C)C(=Nc1ccc(Br)cc1)OCc1cccc(Oc2ccc(F)cc2)c1 [Compound 226]	16	0.001	0.1		0.0005	0.002	0.009
CC(C)C(=Nc1ccc(F)c(Cl)c1)OCc1cccc(Oc2ccc(C#N)cc2)c1 [Compound 196]	17	0.001	> 0.1		0.0006	> 0.05	> 0.01
CC(C)C(=Nc1ccc(F)c(F)c1)OCc1cccc(Oc2ccc(F)cc2)c1 [Compound 60]	8	0.0009	0.017		0.001	0.002	0.0075
CC(C)C(=Nc1ccc(Cl)c(Cl)c1)OCc1cccc(Oc2ccc(F)cc2)c1 [Compound 37]	21	0.0005	0.014		0.0004	0.002	0.009
CC(C)C(=Nc1ccc(F)cc1F)OCc1cccc(Oc2ccc(F)cc2)c1 [Compound 209]	17	0.005	0.1		0.0007	0.001	> 0.01
